Reference: ChEMBL document CHEMBL1201862, “PubChem BioAssay data set” (2004)
Values joined by “and” are separate entries in the source; they are usually repeats but may differ in a detail not shown here. Identical values can stand only once.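 Test compounds were applied to cells in 96-well plates for 48 hours at 5 doses. GI50: concentration for 50% inhibition of growth.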 Active and inactive are the calls of the source. Rule as the data show it: active = GI50 up to about 1.1 µM and inactive = higher.

What was measured:
Experiment in all cases: NCI-60 cell line screen, 48 h
[1] = system: HCT-15
[2] = system: DU-145
[3] = system: Hs-578T
[4] = system: HL-60
[5] = system: 786-0
[6] = system: SF-539
[7] = system: SN12C
[8] = system: NCI/ADR-RES
[9] = system: BT-549
[10] = system: COLO 205
[11] = system: HCC 2998
[12] = system: CAKI-1
[13] = system: ACHN
[14] = system: T47D
[15] = system: NCI-H23
[16] = system: Malme-3M
[17] = system: TK-10
[18] = system: IGROV-1
[19] = system: MCF7
[20] = system: MDA-N

| Compound | GI50 [1] | GI50 [2] | GI50 [3] | GI50 [4] | GI50 [5] | GI50 [6] | GI50 [7] | GI50 [8] | GI50 [9] | GI50 [10] | GI50 [11] | GI50 [12] | GI50 [13] | GI50 [14] | GI50 [15] | GI50 [16] | GI50 [17] | GI50 [18] | GI50 [19] | GI50 [20] |
| --- | --- | --- | --- | --- | --- | --- | --- | --- | --- | --- | --- | --- | --- | --- | --- | --- | --- | --- | --- | --- |
| C[N+](C)(C)CC1CCCc2ccccc2C1=O (stereo unspecified) | 5.98 µM | > 42.1 µM (inactive) | 37.8 µM (inactive) | 1.89 µM (inactive) | 2.44 µM (inactive) | 17.4 µM (inactive) | 6.68 µM (inactive) | 7.06 µM (inactive) | 19.1 µM (inactive) | 22 µM (inactive) | 20.6 µM (inactive) | 4.71 µM (inactive) | 5.02 µM (inactive) | 1.73 µM (inactive) | 17.9 µM (inactive) | 5.79 µM (inactive) | 21 µM (inactive) | 16.6 µM (inactive) | 2.04 µM (inactive) |  |
| COc1cccc(-c2nc(-c3cnccn3)n(C3OC(CO)C(O)C3O)n2)c1 (stereo unspecified) | > 100 µM | > 100 µM (inactive) |  | > 100 µM (inactive) | > 100 µM (inactive) | > 100 µM (inactive) | > 100 µM (inactive) | > 100 µM (inactive) | > 100 µM (inactive) | > 100 µM (inactive) | > 100 µM (inactive) |  |  | > 100 µM (inactive) | > 100 µM (inactive) |  | > 100 µM (inactive) | > 100 µM (inactive) | > 100 µM (inactive) | > 100 µM (inactive) |
| COc1cc(-c2oc3c(OC)c(OC)cc(O)c3c(=O)c2OC)ccc1O [TERNATIN] | 4.54 µM and 6.24 µM | 7.43 µM (inactive) | 3.93 µM (inactive) | 1.24 µM (inactive) | 6.32 µM (inactive) and 12 µM (inactive) | 6.18 µM (inactive) and 7.5 µM (inactive) |  | 38.8 µM (inactive) | 5.01 µM (inactive) | > 100 µM (inactive) |  | 7 µM (inactive) |  | 8.32 µM (inactive) |  | 13.1 µM (inactive) and 9.59 µM (inactive) | 4.84 µM (inactive) and 8.69 µM (inactive) | 4.89 µM (inactive) and 4.1 µM (inactive) | 21.1 µM (inactive) | 15.2 µM (inactive) |
| CNC(=O)NS(=O)(=O)c1ccc(C)cc1.NS(=O)O | > 100 µM | > 100 µM (inactive) | > 100 µM (inactive) | > 100 µM (inactive) | > 100 µM (inactive) | > 100 µM (inactive) | > 100 µM (inactive) | > 100 µM (inactive) | > 100 µM (inactive) | > 100 µM (inactive) |  |  | > 100 µM (inactive) | > 100 µM (inactive) | > 100 µM (inactive) | > 100 µM (inactive) | > 100 µM (inactive) | > 100 µM (inactive) | > 100 µM (inactive) | > 100 µM (inactive) |
| COc1ccc2c3c1OC1C(OC)(OC)CC4(C=C2)CN(C)CCC314 (stereo unspecified) | > 100 µM | > 100 µM (inactive) |  | 20.3 µM (inactive) | > 100 µM (inactive) | > 100 µM (inactive) | > 100 µM (inactive) | > 100 µM (inactive) | > 100 µM (inactive) | > 100 µM (inactive) | > 100 µM (inactive) | > 100 µM (inactive) | > 100 µM (inactive) | > 100 µM (inactive) | > 100 µM (inactive) | > 100 µM (inactive) | > 100 µM (inactive) | > 100 µM (inactive) | > 100 µM (inactive) | > 100 µM (inactive) |
| Cc1cccc(CP(Cc2cccc(C)c2)CC2(Cp3c4ccccc4c4ccccc43)COC2)c1 | 31 µM | 4.71 µM (inactive) |  | 0.332 µM (active) | 1.53 µM (inactive) | 12.1 µM (inactive) | 4.41 µM (inactive) | 53.7 µM (inactive) | 3.96 µM (inactive) | 0.249 µM (active) | 12.3 µM (inactive) | 9.75 µM (inactive) | 4.71 µM (inactive) | 1.73 µM (inactive) | 11.5 µM (inactive) | 5.13 µM (inactive) |  | 2.3 µM (inactive) | 3.15 µM (inactive) | 6.32 µM (inactive) |
| CCN(CC)C(=S)N/N=C(/c1ccccc1)c1ccccn1 | 0.126 µM | 0.402 µM (active) | > 37.6 µM (inactive) | 0.264 µM (active) | 0.145 µM (active) | 0.343 µM (active) | 0.214 µM (active) | 0.27 µM (active) | 0.471 µM (active) | 0.0275 µM (active) | 2.15 µM (inactive) | 0.805 µM (active) | 0.264 µM (active) |  | 0.267 µM (active) | 0.929 µM (active) | 0.439 µM (active) | 0.195 µM (active) | 0.0867 µM (active) | 1.07 µM (active) |
| CN1CCN(/C(N)=C(\C#N)C(=O)Nc2ccc(Cl)cc2)CC1 | 57.9 µM | 79.3 µM (inactive) |  |  | 95.5 µM (inactive) | > 100 µM (inactive) | > 100 µM (inactive) | 87.9 µM (inactive) | > 100 µM (inactive) | 18.7 µM (inactive) | 59.6 µM (inactive) | 79.8 µM (inactive) | > 100 µM (inactive) | > 100 µM (inactive) | 67 µM (inactive) |  |  | 99.1 µM (inactive) | 68.4 µM (inactive) | 52.4 µM (inactive) |
